In PMC13288134 (Structure (London, England : 1993), 2025):

Assays:
TvVip1 [1] = target: T1, TvVip1 (Trichoderma virens, UniProt G9MQB8); assay: competition: loss of deu-5'-dA formation from […] deuterated NTP, LC-MS; format: biochemical
TvVip2 [2] = target: TvVip2 (Trichoderma virens, UniProt G9N0G3, F40H); assay: X-ray crystal structure, […] Å; format: binding; conditions: active site, anaerobic
TvVip1 CTP-swap V2 [3] = target: T2, TvVip1 CTP-swap V2 (Trichoderma virens, UniProt Z9USF9BXN2); assay: competition: deu-5'-dA formation by LC-MS, Cheng-Prusoff from IC50 and Km; format: biochemical; conditions: calculated from average IC50 and Km; competitive assumption; 1 mM deuUTP, 1 mM SAM, 10 μM enzyme, dithionite, HEPES pH 7.5
T2 sequence (Z9USF9BXN2 24-317): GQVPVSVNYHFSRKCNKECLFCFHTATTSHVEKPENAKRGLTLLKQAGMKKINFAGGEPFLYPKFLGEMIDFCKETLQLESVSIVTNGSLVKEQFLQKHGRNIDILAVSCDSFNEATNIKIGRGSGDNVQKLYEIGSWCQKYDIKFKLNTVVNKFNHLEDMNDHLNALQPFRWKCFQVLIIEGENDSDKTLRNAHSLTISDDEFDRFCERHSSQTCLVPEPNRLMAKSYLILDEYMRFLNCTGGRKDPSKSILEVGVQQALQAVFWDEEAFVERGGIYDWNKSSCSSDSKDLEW

TvVip1 [4] = target: T1, TvVip1; assay: as above; format: biochemical; conditions: calculated from average IC50 and Km; competitive assumption; 1 mM deuUTP, 1 mM SAM, 10 μM enzyme, dithionite, HEPES pH 7.5
TvVip2 [5] = target: T3, TvVip2 (Trichoderma virens, UniProt G9N0G3); assay: X-ray crystal structure, […] Å; format: binding; conditions: active site, anaerobic
T3 sequence (G9N0G3 32-328): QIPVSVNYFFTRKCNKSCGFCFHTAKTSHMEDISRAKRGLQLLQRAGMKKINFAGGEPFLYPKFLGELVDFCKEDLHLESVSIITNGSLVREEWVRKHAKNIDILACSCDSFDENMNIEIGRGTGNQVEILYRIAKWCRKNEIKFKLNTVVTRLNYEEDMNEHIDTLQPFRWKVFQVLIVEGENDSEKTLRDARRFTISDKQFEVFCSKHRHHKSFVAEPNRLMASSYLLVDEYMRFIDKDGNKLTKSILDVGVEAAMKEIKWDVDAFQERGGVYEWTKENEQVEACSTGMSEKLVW

TvVip1 CTP-swap V2 [6] = target: T2, TvVip1 CTP-swap V2; assay: competition: deu-5'-dA formation by LC-MS, Cheng-Prusoff from IC50 and Km; format: biochemical; conditions: calculated from average IC50 and Km; competitive assumption; 1 mM deuCTP, 1 mM SAM, 10 μM enzyme, dithionite, HEPES pH 7.5

SMILES | IC50 (TvVip1 [1]) | X-ray crystal structure, 2.3 Å (TvVip2 [2]; with SAM and [4Fe-4S]) | Ki (CTP) (TvVip1 CTP-swap V2 [3]) | Ki (CTP) (TvVip1 [4]) | X-ray crystal structure, 1.5 Å (TvVip2 [5]; with SAM and [4Fe-4S]) | X-ray crystal structure, 2.3 Å (TvVip2 [2]; with CTP and [4Fe-4S]) | X-ray crystal structure, 1.5 Å (TvVip2 [5]; with CTP and [4Fe-4S]) | Ki (UTP) (TvVip1 CTP-swap V2 [6])
Nc1ccn([C@@H]2O[C@H](COP(=O)(O)OP(=O)(O)OP(=O)(O)O)[C@@H](O)[C@H]2O)c(=O)n1 [CTP] | > 4900 µM | TvVip2 F40H (PDB: 9DFU) in the presence of CTP and SAM | 0.22 µM | > 360 µM | contain strong electron density representing the radical SAM [4Fe-4S] cluster, SAM, and CTP |  |  | 
C[S+](CC[C@H](N)C(=O)O)C[C@H]1O[C@@H](n2cnc3c(N)ncnc32)[C@H](O)[C@@H]1O (stereo partly drawn) [SAM] |  |  |  |  |  | TvVip2 F40H (PDB: 9DFU) in the presence of CTP and SAM | contain strong electron density representing the radical SAM [4Fe-4S] cluster, SAM, and CTP | 
O=c1ccn([C@@H]2O[C@H](COP(=O)(O)OP(=O)(O)OP(=O)(O)O)[C@@H](O)[C@H]2O)c(=O)[nH]1 [UTP] | 19 ± 5.7 µM |  |  |  |  |  |  | > 59 µM
